# Laboratory results reported in US12304890B2, “R-type pyridyloxycarboxylic acid, salt and ester derivative thereof, and preparation method therefor, and herbicidal composition and application thereof” (Qingdao Kingagroot Chemical Compound Co., Ltd., priority 2018, dated 2025).
# System: Monocotyledonous and dicotyledonous weed seeds and main crop seeds
# Experiment: Post-emergence test experiment, other weeds and crops (Table 4, 1000 g a.i./ha)
# Assay type: in vivo
# Settings: 3 weeks in greenhouse, fresh weight inhibition
# Description: The above described growth inhibition rate is fresh weight inhibition rate.
# Post-emergence test experiment: Monocotyledonous and dicotyledonous weed seeds and main crop seeds (i. e. wheat, corn, rice, soybean, cotton, oilseed, millet and sorghum.) were put into a plastic pot loaded with soil. Then covered with 0.5-2 cm soil, the seeds were allowed to grow in good greenhouse environment. The test plants were treated at 2-3 leaf stage 2 weeks after sowing. The test compounds of the invention were dissolved with acetone respectively, then added with tween-80, and using 1.5 liters per hectare of an emulsible concentrate of methyl oleate as a synergist, and diluted by certain amount of water to certain concentration. The solution was sprayed to the plants with a sprayer.
smiles,measurement,value
CC(C)N.Nc1c(Cl)c(F)nc(O[C@@H](C(=O)O)c2ccccc2)c1Cl [Compound 2-8],"Activity level (growth inhibition rate), Abutilon theophrasti Medic.",5 (Level 5: the growth inhibition rate is greater than 85%)
same,"Activity level (growth inhibition rate), Galium aparine",5 (Level 5: the growth inhibition rate is greater than 85%)
same,"Activity level (growth inhibition rate), Monochoria Vaginalis",5 (Level 5: the growth inhibition rate is greater than 85%)
COC(=O)C(OC)Oc1nc(F)c(Cl)c(N)c1Cl (stereo not drawn) [Compound 2-58],"Activity level (growth inhibition rate), Abutilon theophrasti Medic.",5 (Level 5: the growth inhibition rate is greater than 85%)
same,"Activity level (growth inhibition rate), Galium aparine",5 (Level 5: the growth inhibition rate is greater than 85%)
same,"Activity level (growth inhibition rate), Monochoria Vaginalis",5 (Level 5: the growth inhibition rate is greater than 85%)
CCCC(Oc1nc(F)c(Cl)c(N)c1Cl)C(=O)OC (stereo not drawn) [Compound 2-37],"Activity level (growth inhibition rate), Abutilon theophrasti Medic.",5 (Level 5: the growth inhibition rate is greater than 85%)
same,"Activity level (growth inhibition rate), Galium aparine",5 (Level 5: the growth inhibition rate is greater than 85%)
same,"Activity level (growth inhibition rate), Monochoria Vaginalis",5 (Level 5: the growth inhibition rate is greater than 85%)
C#CC(Oc1nc(F)c(Cl)c(N)c1Cl)C(=O)OC (stereo not drawn) [Compound 2-46],"Activity level (growth inhibition rate), Abutilon theophrasti Medic.",5 (Level 5: the growth inhibition rate is greater than 85%)
same,"Activity level (growth inhibition rate), Galium aparine",5 (Level 5: the growth inhibition rate is greater than 85%)
same,"Activity level (growth inhibition rate), Monochoria Vaginalis",5 (Level 5: the growth inhibition rate is greater than 85%)
COC(=O)C(C#N)Oc1nc(F)c(Cl)c(N)c1Cl (stereo not drawn) [Compound 2-61],"Activity level (growth inhibition rate), Abutilon theophrasti Medic.",5 (Level 5: the growth inhibition rate is greater than 85%)
same,"Activity level (growth inhibition rate), Galium aparine",5 (Level 5: the growth inhibition rate is greater than 85%)
same,"Activity level (growth inhibition rate), Monochoria Vaginalis",5 (Level 5: the growth inhibition rate is greater than 85%)
COC(=O)C(CCl)Oc1nc(F)c(Cl)c(N)c1Cl (stereo not drawn) [Compound 2-41],"Activity level (growth inhibition rate), Abutilon theophrasti Medic.",5 (Level 5: the growth inhibition rate is greater than 85%)
same,"Activity level (growth inhibition rate), Galium aparine",5 (Level 5: the growth inhibition rate is greater than 85%)
same,"Activity level (growth inhibition rate), Monochoria Vaginalis",5 (Level 5: the growth inhibition rate is greater than 85%)
CCC(Oc1nc(F)c(Cl)c(N)c1Cl)C(=O)[O-].C[N+](C)(C)Cc1ccccc1 (stereo not drawn) [Compound 2-5],"Activity level (growth inhibition rate), Abutilon theophrasti Medic.",5 (Level 5: the growth inhibition rate is greater than 85%)
same,"Activity level (growth inhibition rate), Galium aparine",5 (Level 5: the growth inhibition rate is greater than 85%)
same,"Activity level (growth inhibition rate), Monochoria Vaginalis",5 (Level 5: the growth inhibition rate is greater than 85%)
COC(=O)C(Cc1ccccc1)Oc1nc(F)c(Cl)c(N)c1Cl (stereo not drawn) [Compound 2-63],"Activity level (growth inhibition rate), Abutilon theophrasti Medic.",5 (Level 5: the growth inhibition rate is greater than 85%)
same,"Activity level (growth inhibition rate), Galium aparine",5 (Level 5: the growth inhibition rate is greater than 85%)
same,"Activity level (growth inhibition rate), Monochoria Vaginalis",5 (Level 5: the growth inhibition rate is greater than 85%)
CN(C)CCCN.Nc1c(Cl)c(F)nc(OC(C(=O)O)c2ccccc2)c1Cl (stereo not drawn) [Compound 2-16],"Activity level (growth inhibition rate), Abutilon theophrasti Medic.",5 (Level 5: the growth inhibition rate is greater than 85%)
same,"Activity level (growth inhibition rate), Galium aparine",5 (Level 5: the growth inhibition rate is greater than 85%)
same,"Activity level (growth inhibition rate), Monochoria Vaginalis",5 (Level 5: the growth inhibition rate is greater than 85%)
CSC(=O)C(Oc1nc(F)c(Cl)c(N)c1Cl)c1ccccc1 (stereo not drawn) [Compound 2-385],"Activity level (growth inhibition rate), Abutilon theophrasti Medic.",5 (Level 5: the growth inhibition rate is greater than 85%)
same,"Activity level (growth inhibition rate), Galium aparine",5 (Level 5: the growth inhibition rate is greater than 85%)
same,"Activity level (growth inhibition rate), Monochoria Vaginalis",5 (Level 5: the growth inhibition rate is greater than 85%)
"CCCCOCCN [Compound 2-21, 2-butoxyethylamine]","Activity level (growth inhibition rate), Abutilon theophrasti Medic.",5 (Level 5: the growth inhibition rate is greater than 85%)
same,"Activity level (growth inhibition rate), Galium aparine",5 (Level 5: the growth inhibition rate is greater than 85%)
same,"Activity level (growth inhibition rate), Monochoria Vaginalis",5 (Level 5: the growth inhibition rate is greater than 85%)
NCCOCCO.Nc1c(Cl)c(F)nc(O[C@@H](C(=O)O)c2ccccc2)c1Cl [Compound 2-11],"Activity level (growth inhibition rate), Abutilon theophrasti Medic.",5 (Level 5: the growth inhibition rate is greater than 85%)
same,"Activity level (growth inhibition rate), Galium aparine",5 (Level 5: the growth inhibition rate is greater than 85%)
same,"Activity level (growth inhibition rate), Monochoria Vaginalis",5 (Level 5: the growth inhibition rate is greater than 85%)
COC(=O)C(CO)Oc1nc(F)c(Cl)c(N)c1Cl (stereo not drawn) [Compound 2-49],"Activity level (growth inhibition rate), Abutilon theophrasti Medic.",5 (Level 5: the growth inhibition rate is greater than 85%)
same,"Activity level (growth inhibition rate), Galium aparine",5 (Level 5: the growth inhibition rate is greater than 85%)
same,"Activity level (growth inhibition rate), Monochoria Vaginalis",5 (Level 5: the growth inhibition rate is greater than 85%)
COC(=O)C(CF)Oc1nc(F)c(Cl)c(N)c1Cl (stereo not drawn) [Compound 2-43],"Activity level (growth inhibition rate), Abutilon theophrasti Medic.",5 (Level 5: the growth inhibition rate is greater than 85%)
same,"Activity level (growth inhibition rate), Galium aparine",5 (Level 5: the growth inhibition rate is greater than 85%)
same,"Activity level (growth inhibition rate), Monochoria Vaginalis",5 (Level 5: the growth inhibition rate is greater than 85%)
CC[C@@H](Oc1nc(F)c(Cl)c(N)c1Cl)C(=O)SC [Compound 2-33],"Activity level (growth inhibition rate), Abutilon theophrasti Medic.",5 (Level 5: the growth inhibition rate is greater than 85%)
same,"Activity level (growth inhibition rate), Galium aparine",5 (Level 5: the growth inhibition rate is greater than 85%)
same,"Activity level (growth inhibition rate), Monochoria Vaginalis",5 (Level 5: the growth inhibition rate is greater than 85%)
COC(=O)C(Oc1nc(F)c(Cl)c(N)c1Cl)C(=O)OC [Compound 2-47],"Activity level (growth inhibition rate), Abutilon theophrasti Medic.",5 (Level 5: the growth inhibition rate is greater than 85%)
same,"Activity level (growth inhibition rate), Galium aparine",5 (Level 5: the growth inhibition rate is greater than 85%)
same,"Activity level (growth inhibition rate), Monochoria Vaginalis",5 (Level 5: the growth inhibition rate is greater than 85%)
C=C[C@@H](Oc1nc(F)c(Cl)c(N)c1Cl)C(=O)OC [Compound 2-45],"Activity level (growth inhibition rate), Abutilon theophrasti Medic.",5 (Level 5: the growth inhibition rate is greater than 85%)
same,"Activity level (growth inhibition rate), Galium aparine",5 (Level 5: the growth inhibition rate is greater than 85%)
same,"Activity level (growth inhibition rate), Monochoria Vaginalis",5 (Level 5: the growth inhibition rate is greater than 85%)
CSC(=O)C(Oc1nc(F)c(Cl)c(N)c1Cl)C(C)C (stereo not drawn) [Compound 2-36],"Activity level (growth inhibition rate), Abutilon theophrasti Medic.",5 (Level 5: the growth inhibition rate is greater than 85%)
same,"Activity level (growth inhibition rate), Galium aparine",5 (Level 5: the growth inhibition rate is greater than 85%)
same,"Activity level (growth inhibition rate), Monochoria Vaginalis",5 (Level 5: the growth inhibition rate is greater than 85%)
COC(=O)C(C=O)Oc1nc(F)c(Cl)c(N)c1Cl (stereo not drawn) [Compound 2-48],"Activity level (growth inhibition rate), Abutilon theophrasti Medic.",5 (Level 5: the growth inhibition rate is greater than 85%)
same,"Activity level (growth inhibition rate), Galium aparine",5 (Level 5: the growth inhibition rate is greater than 85%)
same,"Activity level (growth inhibition rate), Monochoria Vaginalis",5 (Level 5: the growth inhibition rate is greater than 85%)
COC(=O)C(Oc1nc(F)c(Cl)c(N)c1Cl)[N+](=O)[O-] (stereo not drawn) [Compound 2-50],"Activity level (growth inhibition rate), Abutilon theophrasti Medic.",5 (Level 5: the growth inhibition rate is greater than 85%)
same,"Activity level (growth inhibition rate), Galium aparine",5 (Level 5: the growth inhibition rate is greater than 85%)
same,"Activity level (growth inhibition rate), Monochoria Vaginalis",5 (Level 5: the growth inhibition rate is greater than 85%)
"NC(CO)(CO)CO [Compound 2-23, tri(methylol) aminomethane]","Activity level (growth inhibition rate), Abutilon theophrasti Medic.",5 (Level 5: the growth inhibition rate is greater than 85%)
same,"Activity level (growth inhibition rate), Galium aparine",5 (Level 5: the growth inhibition rate is greater than 85%)
same,"Activity level (growth inhibition rate), Monochoria Vaginalis",5 (Level 5: the growth inhibition rate is greater than 85%)
COC(=O)C(Oc1nc(F)c(Cl)c(N)c1Cl)c1ccccc1 (stereo not drawn) [Compound 2-62],"Activity level (growth inhibition rate), Abutilon theophrasti Medic.",5 (Level 5: the growth inhibition rate is greater than 85%)
same,"Activity level (growth inhibition rate), Galium aparine",5 (Level 5: the growth inhibition rate is greater than 85%)
same,"Activity level (growth inhibition rate), Monochoria Vaginalis",5 (Level 5: the growth inhibition rate is greater than 85%)
"CN(CCCN)CCCN [Compound 2-19, N,N-bis[aminopropyl]methylamine]","Activity level (growth inhibition rate), Abutilon theophrasti Medic.",5 (Level 5: the growth inhibition rate is greater than 85%)
same,"Activity level (growth inhibition rate), Galium aparine",5 (Level 5: the growth inhibition rate is greater than 85%)
same,"Activity level (growth inhibition rate), Monochoria Vaginalis",5 (Level 5: the growth inhibition rate is greater than 85%)
COC(=O)[C@H](Oc1nc(F)c(Cl)c(N)c1Cl)c1[nH]ncc1F [Compound 2-68],"Activity level (growth inhibition rate), Abutilon theophrasti Medic.",5 (Level 5: the growth inhibition rate is greater than 85%)
same,"Activity level (growth inhibition rate), Galium aparine",5 (Level 5: the growth inhibition rate is greater than 85%)
same,"Activity level (growth inhibition rate), Monochoria Vaginalis",5 (Level 5: the growth inhibition rate is greater than 85%)
COC(=O)C(Oc1nc(F)c(Cl)c(N)c1Cl)C(F)(F)F (stereo not drawn) [Compound 2-39],"Activity level (growth inhibition rate), Abutilon theophrasti Medic.",5 (Level 5: the growth inhibition rate is greater than 85%)
same,"Activity level (growth inhibition rate), Galium aparine",5 (Level 5: the growth inhibition rate is greater than 85%)
same,"Activity level (growth inhibition rate), Monochoria Vaginalis",5 (Level 5: the growth inhibition rate is greater than 85%)
CCC(Oc1nc(F)c(Cl)c(N)c1Cl)C(=O)O.NCCO (stereo not drawn) [Compound 2-10],"Activity level (growth inhibition rate), Abutilon theophrasti Medic.",5 (Level 5: the growth inhibition rate is greater than 85%)
same,"Activity level (growth inhibition rate), Galium aparine",5 (Level 5: the growth inhibition rate is greater than 85%)
same,"Activity level (growth inhibition rate), Monochoria Vaginalis",5 (Level 5: the growth inhibition rate is greater than 85%)
